Source: ChEMBL document CHEMBL1142811, “Design and syntheses of melanocortin subtype-4 receptor agonists. Part 2: discovery of the dihydropyridazinone motif” (Bioorg Med Chem Lett, 2005)

Columns and labels:
[1] = target: T1, Melanocortin receptor 4 (Homo sapiens, UniProt P32245); assay: Inhibition of [125I]-NDP- alpha-MSH binding to human melanocortin 4 receptor expressed in CHO cells; format: cell-based
[2] = target: T1, Melanocortin receptor 4; assay: Maximum percentage of cAMP accumulation compared to alpha-MSH at human melanocortin 4 receptor at 10 uM; format: functional
[3] = target: T1, Melanocortin receptor 4; assay: Effective concentration at human melanocortin 4 receptor in cAMP release assay; format: functional
[4] = target: T1, Melanocortin receptor 4; assay: Maximum percentage of cAMP accumulation relative to alpha-MSH at human melanocortin 4 receptor at 10 uM; format: functional

T1 sequence (P32245 whole entry): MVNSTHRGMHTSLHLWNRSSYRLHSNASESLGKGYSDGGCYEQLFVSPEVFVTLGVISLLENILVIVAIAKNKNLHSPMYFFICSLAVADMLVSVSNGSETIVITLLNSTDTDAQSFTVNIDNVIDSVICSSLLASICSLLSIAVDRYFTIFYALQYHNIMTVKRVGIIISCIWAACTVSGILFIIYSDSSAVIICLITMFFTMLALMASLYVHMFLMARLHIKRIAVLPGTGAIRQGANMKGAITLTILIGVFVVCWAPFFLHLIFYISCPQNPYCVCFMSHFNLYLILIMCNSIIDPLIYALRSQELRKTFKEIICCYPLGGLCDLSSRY

| IC50 [1] [nM] | Max [2] [%] | EC50 [3] [nM] | Max [4] [%] | Compound |
| --- | --- | --- | --- | --- |
| 560 | – | – | – | COc1ccc(N2N=C(Sc3ccc(Cl)cc3)CC(CC[C@@H](C)NC(=O)[C@@H]3CNCC[C@H]3c3ccc(F)cc3)C2=O)cc1 (stereo in doubt; 60) |
| 290 | 9 | – | – | COc1ccc(-n2nc(Sc3ccc(Cl)cc3)cc(CC[C@@H](C)NC[C@@H]3CNCC[C@H]3c3ccc(F)cc3)c2=O)cc1 |
| 430 | – | 740 | – | COc1ccc(N2N=C(Sc3ccc(Cl)cc3)CC(CC[C@@H](C)NC(=O)C3CNC[C@H]3c3ccc(F)cc3)C2=O)cc1 (single isomer, unassigned; 69) |
| 3.8 | 24 | > 5000 | – | COc1ccc(-n2nc(Sc3ccc(Cl)cc3)cc(CC[C@@H](C)NC(=O)[C@H]3CNCC[C@@H]3c3ccc(C(F)(F)F)cc3)c2=O)cc1 |
| 690 | – | 4000 | – | COc1ccc(N2N=C(Sc3ccc(Cl)cc3)CC(CC[C@@H](C)NC(=O)[C@@H]3CNCC[C@H]3c3ccc(F)cc3)C2=O)cc1 (stereo in doubt; 61) |
| 130 | 82 | 490 | – | COc1ccc(-n2nc(Sc3ccc(Cl)cc3)cc(CC[C@@H](C)NC(=O)[C@H]3CNCC[C@@H]3c3ccsc3)c2=O)cc1 |
| 60 | – | 200 | 81 | COc1ccc(-n2nc(Sc3ccc(Cl)cc3)cc(CC[C@@H](C)NC(=O)[C@H]3CNC[C@@H]3c3ccc(F)cc3F)c2=O)cc1 |
| 28 | – | 750 | 67 | COc1ccc(-n2nc(Sc3ccc(Cl)cc3)cc(CC[C@@H](C)NC(=O)[C@H]3CNC[C@@H]3c3ccc(C)cc3)c2=O)cc1 |
| 43 | – | 680 | 37 | COc1ccc(-n2nc(Sc3ccc(Cl)cc3)cc(CC[C@@H](C)NC(=O)[C@H]3CNCC[C@@H]3c3cccc(Cl)c3)c2=O)cc1 |
| 28 | – | 1100 | 75 | COc1ccc(-n2nc(Sc3ccc(Cl)cc3)cc(CC[C@@H](C)NC(=O)[C@@H]3CNCCN3c3ccc(F)cc3)c2=O)cc1 |
| 4.7 | 47 | 1100 | – | COc1ccc(-n2nc(Sc3ccc(Cl)cc3)cc(CC[C@@H](C)NC(=O)[C@H]3CNCC[C@@H]3c3ccc(C)cc3)c2=O)cc1 |
| 1000 | 38 | – | – | COc1ccc(-n2nc(Sc3ccc(Cl)cc3)cc(CC[C@H](C)NC(=O)[C@@H]3CNCCN3c3ccc(F)cc3)c2=O)cc1 |
| 89 | 22 | – | – | COc1ccc(-n2nc(Sc3ccc(Cl)cc3)cc(CC[C@@H](C)NC(=O)[C@H]3CNCC[C@@H]3c3cccc4ccccc34)c2=O)cc1 |
| 540 | – | 480 | – | COc1ccc(N2N=C(Sc3ccc(Cl)cc3)CC(CC[C@@H](C)NC(=O)[C@H]3CCNC[C@@H]3c3ccc(F)cc3)C2=O)cc1 (stereo in doubt; 62) |
| – | – | – | 85 | COc1ccc(-n2nc(Sc3ccc(Cl)cc3)cc(CC[C@@H](C)NC(=O)[C@H]3CCNC[C@@H]3c3ccccc3)c2=O)cc1 |
| – | – | – | 33 | COc1ccc(N2N=C(Sc3ccc(Cl)cc3)CC(CC[C@@H](C)NC(=O)[C@@H]3CCNC[C@H]3c3ccc(F)cc3)C2=O)cc1 (stereo in doubt; 65) |
| 2.4 | – | 210 | 39 | COc1ccc(-n2nc(Sc3ccc(Cl)cc3)cc(CC[C@@H](C)NC(=O)[C@H]3CNCC[C@@H]3c3ccc(Cl)cc3)c2=O)cc1 |
| 93 | – | 410 | 94 | COc1ccc(-n2nc(Sc3ccc(Cl)cc3)cc(CC[C@@H](C)N(C)C(=O)C3CNCCC3c3ccc(F)cc3)c2=O)cc1 (stereo partly specified) |
| 17 | 12 | – | – | COc1ccc(-n2nc(Sc3ccc(Cl)cc3)cc(CC[C@@H](C)NC(=O)[C@H]3CNCC[C@@H]3c3ccc4ccccc4c3)c2=O)cc1 |
| – | – | – | 72 | COc1ccc(N2N=C(Sc3ccc(Cl)cc3)CC(CC[C@@H](C)NC(=O)[C@H]3CNCC[C@@H]3c3ccc(F)cc3)C2=O)cc1 (stereo in doubt; 25) |
| 390 | 62 | 630 | – | COc1ccc(-n2nc(Sc3ccc(Cl)cc3)cc(CC[C@@H](C)NC(=O)[C@H]3CCNC[C@@H]3Cc3ccc(F)cc3)c2=O)cc1 |
| 780 | – | 4000 | – | COc1ccc(N2N=C(Sc3ccc(Cl)cc3)CC(CC[C@@H](C)NC(=O)C3CNC[C@H]3c3ccc(F)cc3)C2=O)cc1 (single isomer, unassigned; 68) |
| 1100 | 9 | – | – | COc1ccc(-n2nc(Sc3ccc(Cl)cc3)cc(CC[C@H](C)NC(=O)[C@H]3CNCCN3c3ccc(F)cc3)c2=O)cc1 |
| 58 | – | 150 | 101 | COc1ccc(-n2nc(Sc3ccc(Cl)cc3)cc(CC[C@@H](C)NC(=O)[C@H]3CCNC[C@@H]3c3ccc(Cl)cc3)c2=O)cc1 |
| 200 | – | 710 | 75 | COc1ccc(-n2nc(Sc3ccc(Cl)cc3)cc(CC[C@@H](C)NC(=O)[C@H]3CCNC[C@@H]3c3ccc(C(F)(F)F)cc3)c2=O)cc1 |
| 98 | – | 400 | 103 | COc1ccc(-n2nc(Sc3ccc(Cl)cc3)cc(CC[C@@H](C)NC(=O)[C@H]3CNC[C@@H]3c3ccccc3)c2=O)cc1 |
